Measured values: patent publication US20180228799A1, “Treatment for Neurological and Mental Disorders” (PSYCHOGENICS, INC., priority 2008, published 2018)

Columns and labels:
[1] = test system: rats; assay: Radial arm maze, scopolamine-induced working memory deficit; assay type: in vivo; details: eltoprazine 0.3 mg/kg PO + scopolamine 0.5 mg/kg IP, ANOVA, FIG. 2
Description: Several mazes, such as the radial arm maze (RAM) have been adapted to assess working memory in rodents. The RAM consists of eight long runways radiating out in a circle from a central compartment. In the RAM rats learn to retrieve food rewards from all or a sub-set of the arms. Working memory is assessed by measuring entries into previously baited arms within a given trial. […] Hippocampal lesions produce deficits both in adults and in the neonatal hippocampal lesion model of schizophrenia.
For training, food deprived rats were placed in an enclosed cylinder in the center of the maze for 20 s, prior to being allowed to explore the maze by removing the cylinder. Each radial arm is baited with a food reward. Animals were given a maximum of 5 minutes to retrieve all food rewards. This training continued once daily for three weeks until animals met the performance criteria for successful acquisition of the task.
Four parameters were recorded to assess the performance of the rat: (1) the number of errors, which is defined as entering an arm that had already been entered, (2) the number of consecutive entries into un-visited arms before the first error occurred (entries to repeat), (3) latency to complete the task, and (4) the total number of arm entries before all food in the eight arms is collected or the maximum session duration is reached. […]

[2] = biological target: T1, 5-HT1A (Homo sapiens, UniProt P08908); details: Schipper et al.; cited from earlier work
T1 sequence (P08908 1-422): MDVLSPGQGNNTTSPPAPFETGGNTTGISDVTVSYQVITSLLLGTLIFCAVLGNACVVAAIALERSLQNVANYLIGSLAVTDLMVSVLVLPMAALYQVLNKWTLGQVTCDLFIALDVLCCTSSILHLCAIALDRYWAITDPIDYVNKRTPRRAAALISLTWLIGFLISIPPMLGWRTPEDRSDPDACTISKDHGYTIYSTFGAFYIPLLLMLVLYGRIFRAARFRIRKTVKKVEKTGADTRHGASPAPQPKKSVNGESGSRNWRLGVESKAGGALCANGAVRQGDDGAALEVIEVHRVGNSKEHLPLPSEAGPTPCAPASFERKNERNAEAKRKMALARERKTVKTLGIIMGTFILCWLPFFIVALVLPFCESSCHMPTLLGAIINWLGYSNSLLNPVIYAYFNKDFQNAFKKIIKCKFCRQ

[3] = test system: 5-HT1; details: selective with respect to all receptors other than 5-HT1; cited from earlier work
[4] = biological target: T2, 5-HT2C receptors (Homo sapiens, UniProt P28335); details: relative to 5-HT1A, 5-HT1B; Schipper et al.; cited from earlier work
T2 sequence (P28335 33-458): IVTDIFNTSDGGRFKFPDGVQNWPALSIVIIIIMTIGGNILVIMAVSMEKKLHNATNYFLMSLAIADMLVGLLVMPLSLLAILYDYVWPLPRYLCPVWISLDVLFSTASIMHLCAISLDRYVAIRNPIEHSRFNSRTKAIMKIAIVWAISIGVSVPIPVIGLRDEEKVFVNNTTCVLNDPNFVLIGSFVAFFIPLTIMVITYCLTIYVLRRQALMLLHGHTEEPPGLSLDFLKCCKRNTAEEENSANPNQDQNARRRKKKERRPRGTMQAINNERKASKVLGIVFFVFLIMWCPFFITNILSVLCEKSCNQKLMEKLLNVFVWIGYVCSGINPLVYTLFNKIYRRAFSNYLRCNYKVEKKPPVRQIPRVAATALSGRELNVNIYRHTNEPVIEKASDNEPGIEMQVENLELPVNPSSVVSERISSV

[5] = test system: Male Wistar rats; assay: Novel Object Recognition Test (NOR); assay type: in vivo; details: 0.3, 1, 3, and 10 mg/kg, 1 h prior to training, 24 hours post training, FIG. 3
Text: In addition to working memory deficits, the initiative, “Measurement and Treatment Research to Improve Cognition in Schizophrenia” (MATRICS) has identified other domains of learning and memory in which schizophrenia patients show impaired visual learning and memory. There are several visual learning and memory tasks appropriate for study in rodents (Powell, S. B. and M. A. Geyer, Overview of animal models of schizophrenia. Curr Protoc Neurosci, 2007. Chapter 9: p. Unit 9 24). […]
Male Wistar rats were assessed for cognitive ability in a test apparatus comprising an open-field arena placed in a sound-attenuated room under dimmed lighting. […] All tests were video scored by an observer blind to treatment. […] Each rat was placed in the arena facing the same direction at the same position, and the time spent actively exploring the objects during a 10-minute test period was recorded. […] After 24 hours, each rat was placed again in the test arena for 10 minutes in the presence of one of the familiar objects and a novel object, and the time spent exploring both objects was recorded. […] The percent time spent exploring the novel object was recorded.

[6] = test system: 5-HT1A/1B receptor; details: cited from earlier work

Structure (SMILES): c1cc2c(c(N3CCNCC3)c1)OCCO2 [Eltoprazine, 1-(2,3-dihydro-1,4-benzodioxanyl-5-yl) piperazine]
- Effect on scopolamine-induced decrease of entries to repeat [1]: attenuated
- Binding affinity for 5-HT1A [2]: roughly equipotent affinity
- Binding selectivity [3]: selective 5-HT1 ligand
- Binding affinity for 5-HT2C receptors [4]: somewhat lower affinity
- Novel object recognition (NOR) memory vs. vehicle-treated controls [5]: significantly improved
- Functional mode of action [6]: mixed 5-HT1A/1B receptor agonist
